# Test results taken from patent US20200337337A1, “ANIMAL FEED COMPOSITIONS COMPRISING MURAMIDASE AND USES THEREOF” (DSM IP ASSETS B.V., priority 2017, published 2020).
# Marks after values point to notes of the source that are not given here.
# System: male broiler chickens (Cobb 500)
# Assay: Experiment in vivo 1: apparent ileal digestibility of crude protein, fat and energy
# Settings: supplemented feed: B Zn-Bacitracin 50 mg/kg; C Muramidase 40 000 U/g; Cobb 500 broilers
# From the text: Day-old male broiler chickens (Cobb 500) were supplied by a commercial hatchery (Joseph Grelier S. A., Elevage avicole de la Bohadière, F-49290 Saint-Laurent de la Plaine, France).
# On the day of arrival (day 1), the chickens were divided by weight into groups of 18 birds. Each group was placed in one floor-pen littered with wood shavings and allocated to one of the different treatments.
# Each treatment was replicated with 12 groups. The chickens were housed in an environmentally controlled room. The room temperature was adapted to the age of the birds. In the first few days an additional infra-red electric heating lamp was placed in each pen. Moreover, in the first week feed was offered to the birds as crumbled pellets, afterwards as pelleted feed. The birds had free access to feed and water.
# The experimental diets (Starter and Grower) were based on soybean meal, wheat and rye (12%) as main ingredients (Table 2). The diets were formulated to contain 210 g crude protein and 12.5 MJ/kg MEN for the starter period and 190 g crude protein and 12.9 MJ/kg MEN for the grower period.
# The diets were fed either unsupplemented (negative control) or supplemented with Muramidase and Zn-Bacitracin as follows:
# Appropriate amount of the solid product (Zn-Bacitracin) was mixed with a small quantity of the basal feed as a premix which was then added to the feed to get the final concentration, according to the treatments. After mixing the feed was pelleted (3×25 mm) at about 70° C.
# Appropriate amount of the liquid preparations of Muramidase was diluted in water and sprayed onto the respective pelleted feed to get the final concentrations in the feed corresponding to the different treatments. For procedural balance of all treatments the same volume of water were also sprayed onto the pellets of the control diets. […]
# Energy determinations were performed using an IKA®-Werke calorimeter (C 2000 basic). TiO2 concentration in feed and digesta were determined by Induction Coupled Plasma (ICP) according to DIN EN ISO 11885:1997 (DIN EN ISO 1998) after H2SO4/Na2SO4 mineralization. […]
substance,measurement,value
Zn-Bacitracin,Apparent ileal digestibility Energy (%),90.1^a %
same,Apparent ileal digestibility Fat (%),82.2^a %
same,Apparent ileal digestibility Protein (%),76.3^a %
